Reference: the NIST ThermoML archive (doi:10.1021/je8009336)

Tests used:
[1] = xn = mol fraction of the nth substance listed; details: 313.15 K, 101 kPa, Liquid; for speed of sound: Vibrating Tube Densimeter; for mass density: Vibrating tube method
[2] = refractive index (Na D-line) (dimensionless); xn = mol fraction of the nth substance listed; details: 313.15 K, 101 kPa, Liquid, Standard Abbe refractometry
[3] = refractive index (Na D-line) (dimensionless); details: 101.33 kPa, Liquid, Standard Abbe refractometry
[4] = Liquid; for mass density: Vibrating tube method; for speed of sound: Vibrating Tube Densimeter

C1CCCC1 [cyclopentane] + c1ccccc1
Details | mass density, [1] [kg/m3] | refractive index, [2] | speed of sound, [1] [m/s]
x1 = 0.0366 | 852 | 1.48417 | 1224.4
x1 = 0.0941 | 843.4 | 1.47833 | 1215.7
x1 = 0.1945 | 828.6 | 1.46795 | 1200.6
x1 = 0.2706 | 817.8 | 1.46049 | 1190.2
x1 = 0.3937 | 800.7 | 1.44843 | 1175.5
x1 = 0.4893 | 787.8 | 1.43934 | 1165
x1 = 0.5917 | 774.4 | 1.42988 | 1155.3
x1 = 0.6893 | 762.1 | 1.4211 | 1147.2
x1 = 0.7983 | 748.6 | 1.41158 | 1139.7
x1 = 0.8971 | 736.8 | 1.40315 | 1134.2
x1 = 0.9471 | 731 | 1.39904 | 1132
x1 = 1 | 725 | 1.39456 | 1130

Cc1ccccc1 [toluene] + C1CCCCC1
x2 = 0
Details | mass density [kg/m3] | refractive index | speed of sound [m/s]
[1] | 848.2 | – | 1240.9
[2] | – | 1.48509 | –

CC1CCCCC1 [methylcyclohexane] + Cc1ccccc1
Details | mass density, [1] [kg/m3] | refractive index, [2] | speed of sound, [1] [m/s]
x1 = 0.0488 | 842.1 | 1.48065 | 1233.3
x1 = 0.0977 | 836.1 | 1.4763 | 1226
x1 = 0.1967 | 824.6 | 1.4675 | 1212.4
x1 = 0.2969 | 813.6 | 1.45909 | 1200.1
x1 = 0.3751 | 805.5 | 1.45314 | 1191.7
x1 = 0.5049 | 792.7 | 1.44348 | 1179.2
x1 = 0.5986 | 784 | 1.43702 | 1171.5
x1 = 0.7022 | 774.9 | 1.43008 | 1164
x1 = 0.8016 | 766.8 | 1.42397 | 1158.1
x1 = 0.9003 | 759.1 | 1.41817 | 1153.2
x1 = 0.9487 | 755.5 | 1.41549 | 1151.2
x1 = 1 | 752 | 1.41272 | 1149.6

CC1CCCCC1 [methylcyclohexane]
[3]
Details | refractive index
298.15 K | 1.42053
313.15 K | 1.41272

[4]
Details | mass density, 298.15 K [kg/m3] | mass density, 313.15 K [kg/m3] | speed of sound, 313.15 K [m/s]
101 kPa | – | 752 | 1149.6
101.33 kPa | 764.9 | – | –

Cc1ccccc1 [toluene] + C1CCCC1
x2 = 0
Details | mass density [kg/m3] | refractive index | speed of sound [m/s]
[1] | 848.2 | – | 1240.9
[2] | – | 1.48509 | –

C1CCCC1 [cyclopentane] + Cc1ccccc1
Details | mass density, [1] [kg/m3] | refractive index, [2] | speed of sound, [1] [m/s]
x1 = 0.0418 | 843.6 | 1.48201 | 1235.6
x1 = 0.0924 | 838 | 1.47801 | 1228.7
x1 = 0.1907 | 826.8 | 1.46979 | 1215.8
x1 = 0.2717 | 817.3 | 1.46313 | 1205.2
x1 = 0.3579 | 807 | 1.45562 | 1194.8
x1 = 0.4944 | 790.4 | 1.44336 | 1178.6
x1 = 0.5862 | 778.9 | 1.43503 | 1168.4
x1 = 0.6895 | 765.8 | 1.42526 | 1157.4
x1 = 0.7951 | 752.2 | 1.41512 | 1147.3
x1 = 0.8958 | 738.9 | 1.40537 | 1138.3
x1 = 0.9456 | 732.3 | 1.40037 | 1134.2
x1 = 1 | 725 | 1.39456 | 1130

C1CCCCC1 [cyclohexane]
[3]
Details | refractive index
298.15 K | 1.42353
313.15 K | 1.41513

[4]
Details | mass density, 298.15 K [kg/m3] | mass density, 313.15 K [kg/m3] | speed of sound, 313.15 K [m/s]
101 kPa | – | 759.6 | 1181.7
101.33 kPa | 773.8 | – | –

c1ccccc1 [benzene] + CC1CCCCC1
x2 = 0
Details | mass density [kg/m3] | refractive index | speed of sound [m/s]
[1] | 857.5 | – | 1230.5
[2] | – | 1.48777 | –

CCc1ccccc1 [ethylbenzene] + CC1CCCCC1
x2 = 0
Details | mass density [kg/m3] | refractive index | speed of sound [m/s]
[1] | 849.3 | – | 1257.3
[2] | – | 1.48538 | –

C1CCCCC1 [cyclohexane] + Cc1ccccc1
Details | mass density, [1] [kg/m3] | refractive index, [2] | speed of sound, [1] [m/s]
x1 = 0.0377 | 844.4 | 1.48212 | 1236.8
x1 = 0.0967 | 838.2 | 1.47761 | 1230
x1 = 0.1945 | 828.5 | 1.47007 | 1220.1
x1 = 0.2433 | 823.4 | 1.46621 | 1215.4
x1 = 0.3985 | 808.6 | 1.45475 | 1202.3
x1 = 0.5672 | 793.4 | 1.44276 | 1191.4
x1 = 0.5965 | 790.9 | 1.44073 | 1189.8
x1 = 0.7019 | 781.9 | 1.43356 | 1185.1
x1 = 0.7958 | 774.4 | 1.4276 | 1182.2
x1 = 0.9011 | 766.5 | 1.42097 | 1181.2
x1 = 0.95 | 763 | 1.41807 | 1180.9
x1 = 1 | 759.6 | 1.41513 | 1181.7

c1ccccc1 [benzene] + C1CCCCC1
x2 = 0
Details | mass density [kg/m3] | refractive index | speed of sound [m/s]
[1] | 857.5 | – | 1230.5
[2] | – | 1.48777 | –

CCc1ccccc1 [ethylbenzene] + C1CCCC1
x2 = 0
Details | mass density [kg/m3] | refractive index | speed of sound [m/s]
[1] | 849.3 | – | 1257.3
[2] | – | 1.48538 | –

Cc1ccccc1 [toluene]
[3]
Details | refractive index
298.15 K | 1.49399
313.15 K | 1.48509

[4]
Details | mass density, 298.15 K [kg/m3] | mass density, 313.15 K [kg/m3] | speed of sound, 313.15 K [m/s]
101 kPa | – | 848.2 | 1240.9
101.33 kPa | 862.1 | – | –
